Experimental data from publication PMC12147183, “Lacritin cleavage-potentiated targeting of iron - respiratory reciprocity promotes bacterial death” (The Journal of Biological Chemistry, 2025).
Peptide text beside a SMILES is read from it.

System: P. aeruginosa PA14
Assay: N-104 sub-MIC generational resistance assay
Type: cell-based, Pseudomonas aeruginosa
Conditions: PA14 treated at subminimal inhibitory and minimal inhibitory concentrations, n = 2
Procedure: Supplementary Fig. 2. Thirty generations of PA14 fail to develop stable N-104 resistance together with biological replicates related to Fig. 2. A, Schematic of the N-104 sub-minimal inhibitory concentration (‘sub-MIC’) N-104 resistant assay. […] . This process was repeated through 30 generations. B, Generational fold change of N-104 MIC over 30 generations. The original sub-MIC N-104 concentration was 2 µM, for which there was no initial sub-MIC change ([mean], n = 2, *p<0.05; ns, not significant [Friedman ANOVA with Dunn's multiple comparisons test]). C, Biological replicates of the N-104 sub-MIC resistant assay. Scale bar is 2 mm. […] Scale bar is 2 mm.

`CC(=O)N[C@@H](C)C(=O)N[C@@H](CCC(N)=O)C(=O)N[C@@H](CCCCN)C(=O)N[C@@H](CC(C)C)C(=O)N[C@@H](CC(C)C)C(=O)N[C@@H](CCCCN)C(=O)N[C@@H](CCCCN)C(=O)N[C@@H](Cc1ccccc1)C(=O)N[C@@H](CO)C(=O)N[C@@H](CC(C)C)C(=O)N[C@@H](CC(C)C)C(=O)N[C@@H](CCCCN)C(=O)N1CCC[C@H]1C(=O)N[C@@H](Cc1c[nH]c2ccccc12)C(=O)N[C@@H](C)C(=O)O` [N-104] (Ac-AQKLLKKFSLLKPWA-OH) was tested, and the “development of resistance over 30 successive generations” value was “No stable resistance was apparent”.
